# Where a name gives a salt, the structure may show the parent alone. Read-outs that look alike come from different tables or passages of the source.
# What was measured:
# Format in all cases: cell-based
# [1] = Cell viability analysis (WST-1), normal pulmonary epithelial cell line BEAS-2B; details: human, BEAS-2B cells (normal pulmonary epithelial cell line)
# Description: Subculture the different types of cancer cells. The cancer cells includes lung cancer, gastric cancer, hepatic cancer, colon cancer, skin cancer, cervical cancer, prostate cancer, bladder cancer, breast cancer, leukemia, pancreatic cancer, ovarian cancer, tongue cancer, osteosarcoma, and renal cancer. The normal cells used in the control group included kidney cell (HEK293) and human bronchial epithelial cell line BEAS-2B (as shown in Table 1).
# (§1) The cell numbers were counted and reseed as 2×10^6 in culture plate/flask. Then, the culture medium were added to a volume of 10 ml, and the cells were cultured for 2-3 days. Then, the cells were suspended for loading into 96-well plates. The number of cells was 3000 and the volume of the culture medium was 100 μl each well.
# (§2) Removing the original culture medium from 96-well plate. Then add 100 μl of commercially drug at a concentration of 10 μM per well. After 72 hours, add the diluted WST-1 reagent to the well with 100 μl/well, and the diluted WST-1 reagent was acquired from the dilution of 9:1 medium and WST-1 stock reagent. Finally, the total volume of each well was 200 μl/well. Culture the 96-well plate at 37° C. for 30 to 90 minutes. Detecting and calculate the survival rate of each cancer cells with an ELISA reader at OD450 nm. The lower viability of cancer cells represents better inhibition effect via the Cinacalcet HCl drug. Otherwise, the higher viability of cancer cells represents worse inhibition effect via the Cinacalcet HCl drug.
# (§3) This inhibition test of Cinacalcet HCl on normal cells were using normal kidney cell line HEK293 (Table 16), normal pulmonary epithelial cell lines […] BEAS-2B (Table 17). The inhibitory tests of Cinacalcet HCl were performed 4 times for each cell lines and then the average value of the inhibitory tests was calculated The results were shown in Tables 16 and Tables 17.
# various cancer cells = test: Inhibitory effect on various cancer cells; details: FIG. 1
# Description: as §2
# (§4) Cinacalcet HCl is having different inhibitory effect on different tumor cell type even in the same cancer. […] (FIG. 1)
# BCC = test: Cell viability analysis (WST-1), BCC; details: read-out: survival rate (viability) of cells
# Description: as §1, §2
# (§5) This inhibition test of Cinacalcet HCl on other cancer cells were using osteosarcoma cell line U2OS (Table 14), skin cancer cell lines A375 and BCC (Table 15). The inhibitory tests of Cinacalcet HCl were performed 4 times for each cell lines and then the average value of the inhibitory tests was calculated.
# HeLa = test: Cell viability analysis (WST-1), HeLa; details: Homo sapiens, read-out: survival rate (viability) of cells
# Description: as §1, §2
# (§6) This inhibition test of Cinacalcet HCl on abdominal-related cancer cells were using bladder cancer cell line TSGH and T24 (Table 3), cervical cancer cell lines HeLa and C-33A (Table 4), renal cancer cell line 786-O (Table 5). The inhibitory tests of Cinacalcet HCl were performed 4 times for each cell lines and then the average value of the inhibitory tests was calculated.
# skin cancer cells = test: Summary of cell viability, skin cancer cells; details: 72 hours, read-out: Inhibitory effect
# Description: as §1, §2, §4
# LoVo = test: Cell viability analysis (WST-1), LoVo; details: Homo sapiens, read-out: survival rate (viability) of cells
# Description: as §1, §2
# (§7) This inhibition test of Cinacalcet HCl on gastrointestinal tract-related cancer cells were using gastric cancer cell lines AGS and MKN-45 (Table 9), hepatic cancer cell lines HepG2 and Hep3B (Table 10), colorectal cancer cell lines HCT116-wt and LoVo (Table 11), pancreatic cancer cell line AsPC-1 and BxPC-3(Table 12), tongue cancer cell line SAS (Table 13). The inhibitory tests of Cinacalcet HCl were performed 4 times for each cell lines and then the average value of the inhibitory tests was calculated.
# normal cells = test: Toxicity to normal cells
# Description: as §2, §3
# 786-O = test: Cell viability analysis (WST-1), 786-O; details: Homo sapiens
# Description: as §1, §2, §6
# MKN-45 = test: Cell viability analysis (WST-1), MKN-45; details: Homo sapiens, read-out: survival rate (viability) of cells
# Description: as §1, §2, §7
# TOV-21G = test: Cell viability analysis (WST-1), TOV-21G; details: Homo sapiens, TOV21G, read-out: survival rate (viability) of cells
# Description: as §1, §2
# This inhibition test of Cinacalcet HCl on endocrine-related cancer cells were using prostate cancer cell lines PC-3 and LNCap (Table 6), breast cancer cell lines MCF7 and MDA-MB-231 (Table 7), and ovarian cancer cell lines NIH-OVCAR-3 and TOV-21G (Table 8). The inhibitory tests of Cinacalcet HCl were performed 4 times for each cell lines and then the average value of the inhibitory tests was calculated.
# U2OS = test: Cell viability analysis (WST-1), U2OS; details: Homo sapiens, read-out: survival rate (viability) of cells
# Description: as §1, §2, §5
# cervical cancer cells = test: Summary of cell viability, cervical cancer cells; details: 72 hours, read-out: Inhibitory effect
# Description: as §1, §2, §4
# TSGH = test: Cell viability analysis (WST-1), TSGH; details: read-out: survival rate (viability) of cells
# Description: as §1, §2, §6
# A375 = test: Cell viability analysis (WST-1), A375; details: Homo sapiens, read-out: survival rate (viability) of cells
# Description: as §1, §2, §5
smiles,measurement,setting,value
"C[C@@H](NCCCc1cccc(C(F)(F)F)c1)c1cccc2ccccc12 [Cinacalcet HCl, Cinacalcet hydrochloride]","viability at 72 h, 10 µM","[1]; average of tests, read-out: survival rate (viability) of cells",76.1%
same,"viability at 72 h, 10 µM","[1]; summary, normal pulmonary epithelial cell line, read-out: Inhibitory effect",76.1%
same,"viability at 72 h, 10 µM","[1]; test 0510-10 min, read-out: survival rate (viability) of cells",70.5%
same,"viability at 72 h, 10 µM","[1]; test 0512-10 min, read-out: survival rate (viability) of cells",72.9%
same,"viability at 72 h, 10 µM","[1]; test 0515-10 min, read-out: survival rate (viability) of cells",72.2%
same,"viability at 72 h, 10 µM","[1]; test 0517-10 min, read-out: survival rate (viability) of cells",89%
same,inhibitory effect on various cancer cells,various cancer cells,significant inhibitory effect and specificity
same,viability at 10 µM,"BCC; 72 h, average of tests",111%
same,viability at 10 µM,"BCC; 72 hours, test 0602-30 min",114%
same,viability at 10 µM,"BCC; 72 hours, test 0605-10 min",106%
same,viability at 10 µM,"BCC; 72 hours, test 0607-10 min",113%
same,viability at 10 µM,"HeLa; 72 h, average of tests",111%
same,viability at 10 µM,"HeLa; 72 hours, test 0524-10 min",110%
same,viability at 10 µM,"HeLa; 72 hours, test 0526-10 min",119%
same,viability at 10 µM,"HeLa; 72 hours, test 0529-10 min",104%
same,viability at 10 µM,"HeLa; 72 hours, test 0531-10 min",113%
same,viability at 10 µM,skin cancer cells,80%
same,viability at 10 µM,"LoVo; 72 h, average of tests",93.4%
same,viability at 10 µM,"LoVo; 72 hours, test 0616-10 min",73.9%
same,viability at 10 µM,"LoVo; 72 hours, test 0619-10 min",125%
same,viability at 10 µM,"LoVo; 72 hours, test 0621-10 min",90.4%
same,viability at 10 µM,"LoVo; 72 hours, test 0623-10 min",84.2%
same,toxicity to normal cells,normal cells,no toxicity or had little toxicity
same,viability at 10 µM,"786-O; 786-0, 10 μM, 72 hours, test 0524-10 min, read-out: survival rate (viability) of cells",81.3%
same,viability at 10 µM,"786-O; 786-0, 10 μM, 72 hours, test 0526-10 min, read-out: survival rate (viability) of cells",71.6%
same,viability at 10 µM,"786-O; 786-0, 10 μM, 72 hours, test 0529-10 min, read-out: survival rate (viability) of cells",80.2%
same,viability at 10 µM,"786-O; 786-0, 10 μM, 72 hours, test 0531-10 min, read-out: survival rate (viability) of cells",87.1%
same,viability at 10 µM,"786-O; 786-0, 72 h, 10 μM, average of tests, read-out: survival rate (viability) of cells",80%
same,viability at 10 µM,"786-O; 786-0, 72 h, summary, Kidney cancer, 10 μM, read-out: Inhibitory effect",87.5%
same,viability at 10 µM,"MKN-45; MKN-45, 10 μM, 72 hours, test 0510-10 min",82.1%
same,viability at 10 µM,"MKN-45; MKN-45, 10 μM, 72 hours, test 0512-10 min",102%
same,viability at 10 µM,"MKN-45; MKN-45, 10 μM, 72 hours, test 0515-10 min",104%
same,viability at 10 µM,"MKN-45; MKN-45, 10 μM, 72 hours, test 0517-10 min",69.1%
same,viability at 10 µM,"MKN-45; MKN-45, 72 h, 10 μM, average of tests",89.1%
same,viability at 10 µM,"TOV-21G; 72 h, average of tests",113%
same,viability at 10 µM,"TOV-21G; 72 hours, test 7-3-30 min",129%
same,viability at 10 µM,"TOV-21G; 72 hours, test 7-4-30 min",109%
same,viability at 10 µM,"TOV-21G; 72 hours, test 7-7-30 min",104%
same,viability at 10 µM,"TOV-21G; 72 hours, test -4-30 min",108%
same,viability at 10 µM,"U2OS; 72 h, average of tests",77.4%
same,viability at 10 µM,"U2OS; 72 hours, test 6-26-10 min",82.6%
same,viability at 10 µM,"U2OS; 72 hours, test 6-28-10 min",86.7%
same,viability at 10 µM,"U2OS; 72 hours, test 6-30-10 min",64.9%
same,viability at 10 µM,"U2OS; 72 hours, test 7-3-10 min",75.3%
same,viability at 10 µM,cervical cancer cells,111%
same,viability at 10 µM,"TSGH; 72 h, average of tests",59.8%
same,viability at 10 µM,"TSGH; 72 hours, test 0510-10 min",57.3%
same,viability at 10 µM,"TSGH; 72 hours, test 0512-10 min",73.2%
same,viability at 10 µM,"TSGH; 72 hours, test 0515-10 min",74.7%
same,viability at 10 µM,"TSGH; 72 hours, test 0517-10 min",33.9%
same,viability at 10 µM,"A375; A-375, 10 μM, 72 hours, test 0602-30 min",117%
same,viability at 10 µM,"A375; A-375, 10 μM, 72 hours, test 0605-10 min",95.6%
same,viability at 10 µM,"A375; A-375, 10 μM, 72 hours, test 0607-10 min",94.4%
same,viability at 10 µM,"A375; A-375, 10 μM, 72 hours, test 0609-10 min",108%
same,viability at 10 µM,"A375; A-375, 72 h, 10 μM, average of tests",104%

# Source: patent publication US20170304228A1, “NEW INDICATION OF CINACALCET HCL PHARMACEUTICAL COMPOSITION FOR TREATING CANCER” (LAUNX BIOMEDICAL CO., LTD., priority 2014, published 2017)
